The record followed here is US8735411B2, “Macrocyclic benzofused pyrimidine derivatives” (AbbVie Inc., priority 2006, dated 2014).

Chain of histamine H4 receptor (Q9H3N8 whole entry): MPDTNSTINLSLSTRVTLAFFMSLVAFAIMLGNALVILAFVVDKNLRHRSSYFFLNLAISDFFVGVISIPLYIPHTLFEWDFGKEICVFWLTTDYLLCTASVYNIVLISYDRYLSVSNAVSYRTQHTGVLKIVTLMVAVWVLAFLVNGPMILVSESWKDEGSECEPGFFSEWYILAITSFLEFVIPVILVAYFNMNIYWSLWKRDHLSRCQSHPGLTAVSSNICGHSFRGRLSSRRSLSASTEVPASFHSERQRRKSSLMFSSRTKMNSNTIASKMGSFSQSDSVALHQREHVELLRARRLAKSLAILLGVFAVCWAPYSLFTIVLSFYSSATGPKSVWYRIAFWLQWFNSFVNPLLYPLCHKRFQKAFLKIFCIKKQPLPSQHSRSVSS

This assay addresses histamine H4 receptor (Homo sapiens, UniProt Q9H3N8). Kind of assay: In vitro histamine H4 potency in FLIPR (Ca2+ flux, HEK-293 cells coexpressing Gαqi5). The format is cell-based. Set-up: expressed in transfected cells. The conditions noted are these: Kb for antagonists and inverse agonists, EC50 for partial agonists. From the text: There are many methods available to show the effectiveness of compounds as histamine H4 receptor ligands. Histamine H4 receptors from mammalian species have been cloned. Methods to clone, express, and assess the potency and functional activity of such cloned genes are well known to those skilled in the art of molecular biology. […] Before testing, cells are loaded with a Ca^+2 sensitive fluorescent dye, in this case Fluo-4. In the case of partial agonist or agonist ligands, addition of compound to the cells leads to the increase in intracellular Ca^+2 which is detected by FLIPR (Fluorescence Imaging Plate Reader; Molecular Devices, Sunnyvale, Calif.) technology. […] The fluorescence intensities measured before addition of the test compound are subtracted from the fluorescence intensities at later time points. Peak response values determined at each concentration of ligand are expressed as a percentage of the response obtained with the full agonist histamine. Concentration versus response data are analyzed to obtain compound potency as Kb values for antagonists and inverse agonists and as EC50 values for partial agonists.
Compound `CN[C@@H]1CCN(c2nc(N)nc3c2CCOc2cc(I)ccc2-3)C1` [Example 100, 9-Iodo-4-((R)-3-methylamino-pyrrolidin-1-yl)-5,6-dihydro-7-oxa-1,3-diaza-dibenzo[a,c]cyclohepten-2-ylamine] returned a Potency of 120 nM. In turn, `CNC1CN(c2nc(N)nc3c2CCOc2ccccc2-3)C1` [Example 32, 4-(3-Methylamino-azetidin-1-yl)-5,6-dihydro-7-oxa-1,3-diaza-dibenzo[a,c]cyclohepten-2-ylamine] showed a Potency of 8.7 nM. With `Nc1nc2c(c(N3CCC4CC3CN4)n1)CCCc1ccccc1-2` (stereo not drawn) [Example 82, 4-(2,6-Diaza-bicyclo[3.2.1]oct-2-yl)-6,7-dihydro-5H-benzo[6,7]cyclohepta[1,2-d]pyrimidin-2-ylamine], the Potency is given as 2042 nM.

`CN[C@@H]1CCN(c2nc(N)nc3c2CCOc2c(C)cccc2-3)C1` [Example 52, 8-Methyl-4-((R)-3-methylamino-pyrrolidin-1-yl)-5,6-dihydro-7-oxa-1,3-diaza-dibenzo[a,c]cyclohepten-2-ylamine] returned a Potency of 56 nM. The compound `CN1CC[C@@H]2CN(c3nc(N)nc4c3CCCc3ccccc3-4)C[C@@H]21` [Example 15, 4-((3aR,6aR)-1-Methyl-hexahydro-pyrrolo[3,4-b]pyrrol-5-yl)-6,7-dihydro-5H-benzo[6,7]cyclohepta[1,2-d]pyrimidin-2-ylamine] showed a Potency of 209 nM. With `Nc1nc2c(c(N3C[C@H]4CNC[C@H]43)n1)CCCc1ccccc1-2` [Example 117, (1R,5S)-4-(3,6-Diaza-bicyclo[3.2.0]hept-6-yl)-6,7-dihydro-5H-benzo[6,7]cyclohepta[1,2-d]pyrimidin-2-ylamine] the figure was 12 nM; with `c1cncc(CNc2nc3c(c(N4CC5CCCNC5C4)n2)CCCc2ccccc2-3)c1` (stereo not drawn) [Example 92, 6-(2-pyridin-3-ylmethylamino-6,7-dihydro-5H-benzo[6,7]cyclohepta[1,2-d]pyrimidin-4-yl)octahydro-1H-pyrrolo[3,4-b]pyridine], 2570 nM.

Compound `Nc1nc2c(c(N3CC[C@@H](N)C3)n1)CCCCc1ccccc1-2` [Example 55, 4-[(3R)-3-aminopyrrolidin-1-yl]-5,6,7,8-tetrahydrobenzo[7,8]cycloocta[1,2-d]pyrimidin-2-amine] gave a Potency of 123 nM. `CN[C@@H]1CCN(c2nc(N)nc3c2CCOc2ccccc2-3)C1` [Example 31, 4-((R)-3-Methylamino-pyrrolidin-1-yl)-5,6-dihydro-7-oxa-1,3-diaza-dibenzo[a,c]cyclohepten-2-ylamine] returned a Potency of 27 nM. In turn, `Nc1nc2c(c(N3CCNCC3)n1)CCCCc1ccccc1-2` [Example 20, 4-Piperazin-1-yl-5,6,7,8-tetrahydro-1,3-diaza-dibenzo[a,c]cycloocten-2-ylamine] came in with a Potency of 32 nM. The result for `Nc1nc2c(c(N3C[C@@H]4C[C@H]3CN4)n1)CCCCCc1ccccc1-2` [Example 28, 4-((1S,4S)-2,5-Diaza-bicyclo[2.2.1]hept-2-yl)-6,7,8,9-tetrahydro-5H-1,3-diaza-dibenzo[a,c]cyclononen-2-ylamine] reads 15849 nM; that for `CN1CCN(c2nc(N)nc3c2CCCc2ccccc2-3)CC1` [Example 5, 4-(4-Methyl-piperazin-1-yl)-6,7-dihydro-5H-benzo[6,7]cyclohepta[1,2-d]-pyrimidin-2-ylamine], 9.8 nM; that for `Nc1nc2c(c(N3CCNCC3)n1)CCc1ccccc1-2` [Example 44, 4-Piperazin-1-yl-5,6-dihydro-benzo[h]quinazolin-2-ylamine], 24 nM. `CN1CCN(c2nc(N)nc3c2CCc2ccccc2-3)CC1` [Example 42, 4-(4-Methyl-piperazin-1-yl)-5,6-dihydro-benzo[h]quinazolin-2-ylamine]: the Potency turned out to be 13 nM. The result for `Nc1nc2c(c(N3CCNCC3)n1)CCOc1ccccc1-2` [Example 30, 4-Piperazin-1-yl-5,6-dihydro-7-oxa-1,3-diaza-dibenzo[a,c]cyclohepten-2-ylamine] reads 166 nM; that for `CNc1nc2c(c(N3CCNCC3)n1)CCCc1ccccc1-2` [Example 123, Methyl-(4-piperazin-1-yl-6,7-dihydro-5H-benzo[6,7]cyclohepta[1,2-d]pyrimidin-2-yl)-amine], 1622 nM; that for `CN[C@@H]1CCN(c2nc(N)nc3c2CCOc2c(Cl)cccc2-3)C1` [Example 51, 8-chloro-4-[(3R)-3-(methylamino)pyrrolidin-1-yl]-5,6-dihydro[1]benzoxepino[5,4-d]pyrimidin-2-amine], 41 nM. The result for `Nc1nc2c(c(N3CCNCC3)n1)CCCCCc1ccccc1-2` [Example 21, 4-Piperazin-1-yl-6,7,8,9-tetrahydro-5H-1,3-diaza-dibenzo[a,c]cyclononen-2-ylamine] reads 5623 nM. With `CN[C@@H]1CCN(c2nc(N)nc3c2CC(C)c2ccccc2-3)C1` (stereo partly drawn) [Example 1, 6-Methyl-4-[(3R)-3-methylamino-pyrrolidin-1-yl]-5,6-dihydro-benzo[h]quinazolin-2-ylamine] the figure was 18 nM; with `Nc1nc2c(c(N3CCNCC3)n1)COc1ccccc1-2` [Example 10, 1-Piperazin-1-yl-10H-9-oxa-2,4-diaza-phenanthren-3-ylamine], 10 nM; with `Nc1nc2c(c(N3CC4CCCNC4C3)n1)CCOc1cc(I)ccc1-2` (stereo not drawn) [Example 102, 9-Iodo-4-octahydro-pyrrolo[3,4-b]pyridin-6-yl-5,6-dihydro-7-oxa-1,3-diaza-dibenzo[a,c]cyclohepten-2-ylamine], 45 nM. `c1ccc2c(c1)CCCc1c-2ncnc1N1CCNCC1` [Example 118, 4-Piperazin-1-yl-6,7-dihydro-5H-benzo[6,7]cyclohepta[1,2-d]pyrimidine] showed a Potency of 138 nM. On to `Nc1nc(NC[C@H]2CCN2)c2c(n1)-c1ccccc1CCC2` [Example 64, N^4-[(2R)-azetidin-2-ylmethyl]-6,7-dihydro-5H-benzo[6,7]cyclohepta[1,2-d]pyrimidine-2,4-diamine], for which the Potency was found to be 1549 nM. Compound `Nc1nc2c(c(N3CC4CCCNC4C3)n1)CCOc1cc(-c3cccnc3)ccc1-2` (stereo not drawn) [Example 106, 4-Octahydro-pyrrolo[3,4-b]pyridin-6-yl-9-pyridin-3-yl-5,6-dihydro-7-oxa-1,3-diaza-dibenzo[a,c]cyclohepten-2-ylamine] registered a Potency of 140 nM. For the compound `Nc1nc(NCCCN2CCCCC2)c2c(n1)-c1ccccc1CCC2` [Example 113, N^4-(3-Piperidin-1-yl-propyl)-6,7-dihydro-5H-benzo[6,7]cyclohepta[1,2-d]pyrimidine-2,4-diamine], the Potency was 4266 nM. The result for `CNC1CN(c2nc(N)nc3c2CC[S+]([O-])c2ccccc2-3)C1` (stereo not drawn) [Example 37, 4-(3-Methylamino-azetidin-1-yl)-7-oxo-6,7-dihydro-5H-7λ4-thia-1,3-diaza-dibenzo[a,c]cyclohepten-2-ylamine] reads 537 nM; that for `CC(=O)Nc1nc2c(c(N3CCNCC3)n1)CCCc1ccccc1-2` [Example 83, N-(4-Piperazin-1-yl-6,7-dihydro-5H-benzo[6,7]cyclohepta[1,2-d]pyrimidin-2-yl)-acetamide], 2951 nM.
